Laboratory results from patent publication US10253039B2, “Inhibitors of bacterial DNA gyrase with efficacy against gram-negative bacteria” (priority 2014, dated 2019).
Values after ≈ are worked out from the molar mass of the structure shown. Like-named read-outs stand apart in the source and are kept apart here.

Legend:
Type in all cases: cell-based
E. coli BW25113 = assay: MIC, microdilution in 96-well plates; conditions: Escherichia coli, read-out: MIC
Experimental: (§1) A microdilution method in 96-well plates was used and the MIC protocol established by the Clinical Laboratory Standards Institute was followed. From a growing subculture, a 1:10000 inoculum of each strain in Luria-Bertani media was prepared and aliquoted 100 μL in 4 columns of wells, except for the top row wells, which contained 200 μL of inoculum. A solution of gyramide C2 was aliquoted into 3 of the wells containing 200 μL and DMSO was added to the 4th well. The liquid in each of wells was mixed with a multi-channel pipet and 100 μL was transferred to the next well and mixed. The 2-fold dilution was continued down the 96-well plate until 100 μL was left, which was discarded. The plates were incubated at 37° C. with shaking for 16-18 hours. The MIC was determined as the lowest concentration that inhibited growth and had no turbidity by visual inspection.
(§2) Minimum inhibitory concentrations of various gyramide compounds against 20 strains of bacteria were determined using the procedure described above.

Edwardsiella tarda = assay: MIC, microdilution in 96-well plates
Experimental: as §1, §2

[1] = system: Staphylococcus aureus subsp. aureus; assay: MIC, 20-strain panel; conditions: read-out: MIC
Experimental: as §1, §2

E. coli MG1655 = assay: MIC, 20-strain panel; conditions: Escherichia coli, read-out: MIC
Experimental: as §1, §2

Streptococcus pyogenes = assay: MIC, 20-strain panel
Experimental: as §1, §2

[2] = system: Salmonella enterica subsp. enterica typhimurium; assay: MIC, 20-strain panel
Experimental: as §1, §2

Shigella flexneri = assay: MIC, 20-strain panel
Experimental: as §1, §2

[3] = system: Staphylococcus epidermidis; assay: MIC, 20-strain panel
Experimental: as §1, §2

E. coli JW5503 (deltolC) = assay: MIC, 20-strain panel; conditions: Escherichia coli
Experimental: as §1, §2

[4] = system: Klebsiella pneumoniae subsp. pneumoniae; assay: MIC, 20-strain panel
Experimental: as §1, §2

[5] = system: Staphylococcus saprophyticus subsp. saprophyticus; assay: MIC, 20-strain panel
Experimental: as §1, §2

Streptococcus agalactiae = assay: MIC, 20-strain panel
Experimental: as §1, §2

[6] = H: Staphylococcus aureus subsp. aureus
[7] = F: Salmonella enterica subsp. enterica Typhimurium
[8] = E: Klebsiella pneumoniae subsp. pneumoniae
[9] = Staphylococcus aureus subsp. aureus
[10] = Salmonella enterica subsp. enterica Typhimurium
[11] = Klebsiella pneumoniae subsp. pneumoniae

Compound | MIC (E. coli BW25113; BW25113, B: E. coli BW25113) [µg/mL] | MIC (Edwardsiella tarda; D: Edwardsiella tarda) [µg/mL] | MIC [1, 6] [µg/mL] | MIC (E. coli MG1655; MG1655, A: E. coli MG1655) [µg/mL] | MIC (Streptococcus pyogenes) [µg/mL] | MIC [2, 7] [µg/mL] | MIC (Shigella flexneri; G: Shigella flexneri) [µg/mL] | MIC [3] [µg/mL] | MIC (E. coli JW5503 (deltolC); C: E. coli JW5503 (deltolC)) [µg/mL] | MIC [4, 8] [µg/mL] | MIC [5] [µg/mL] | MIC (Streptococcus agalactiae) [µg/mL] | MIC (E. coli BW25113; BW25113, E. coli BW25113) [µg/mL] | MIC (Edwardsiella tarda) [µg/mL] | MIC [1, 9] [µg/mL] | MIC (E. coli MG1655; MG1655, E. coli MG1655) [µg/mL] | MIC [2, 10] [µg/mL] | MIC (Shigella flexneri) [µg/mL] | MIC (E. coli JW5503 (deltolC); E. coli JW5503 (deltolC)) [µg/mL] | MIC [4, 11] [µg/mL]
O=S(=O)(N[C@@H]1CCN(Cc2ccc(-c3ccccc3)cc2)C1)c1cc(C(F)(F)F)cc(C(F)(F)F)c1 [Compound 81] | > 8 | > 8 | > 8 | > 8 | ~8 (≈ 15.1 µM) | > 8 | > 8 | 8 (≈ 15.1 µM) | > 8 | > 8 | > 8 | > 8 | – | – | – | – | – | – | – | –
O=S(=O)(N[C@@H]1CCN(Cc2ccc(OC3CC3)cc2)C1)c1cccnc1 [Compound 104] | > 8 | > 8 | > 8 | > 8 | > 8 | > 8 | > 8 | > 8 | > 8 | > 8 | > 8 | > 8 | – | – | – | – | – | – | – | –
COc1ccc(-c2ccc(CN3CC[C@@H](NS(=O)(=O)c4cccc(C(F)(F)F)c4)C3)cc2)cc1 [Compound 61] | > 8 | > 8 | > 8 | > 8 | ~8 (≈ 16.3 µM) | > 8 | > 8 | ~8 (≈ 16.3 µM) | 4 (≈ 8.15 µM) | > 8 | > 8 | > 8 | – | – | – | – | – | – | – | –
O=S(=O)(N[C@@H]1CCN(Cc2ccc(OC(F)(F)F)cc2)C1)c1cccc(C(F)(F)F)c1 [Compound 6] | > 8 | > 8 | > 8 | > 8 | > 8 | > 8 | > 8 | > 8 | 4 (≈ 8.54 µM) | > 8 | > 8 | > 8 | – | – | – | – | – | – | – | –
O=S(=O)(N[C@@H]1CCN(Cc2ccc(-n3ccnn3)cc2)C1)c1cccc(OC(F)(F)F)c1 [Compound 33] | > 8 | > 8 | > 8 | > 8 | > 8 | > 8 | > 8 | > 8 | > 8 | > 8 | > 8 | > 8 | – | – | – | – | – | – | – | –
O=S(=O)(N[C@@H]1CCN(Cc2ccc(-c3ccccc3)cc2)C1)c1ccc(Cl)cn1 [Compound 141] | – | – | – | – | > 8 | – | – | > 8 | – | – | > 8 | > 8 | > 8 | > 8 | > 8 | > 8 | > 8 | > 8 | ~8 (≈ 18.7 µM) | > 8
Cn1ccc(-c2ccc(CN3CC[C@@H](NS(=O)(=O)c4cccc(C#N)c4)C3)cc2)n1 [Compound 170] | – | – | – | – | > 8 | – | – | > 8 | – | – | > 8 | > 8 | > 8 | > 8 | > 8 | > 8 | > 8 | > 8 | 2 (≈ 4.74 µM) | > 8
O=S(=O)(N[C@@H]1CCN(Cc2ccc(OC3CC3)cc2)C1)c1cc(C(F)(F)F)ccc1Cl [Compound 90] | ~8 (≈ 16.8 µM) | > 8 | > 8 | > 8 | > 8 | 4 (≈ 8.42 µM) | ~8 (≈ 16.8 µM) | > 8 | < 0.0625 | > 8 | > 8 | > 8 | – | – | – | – | – | – | – | –
N#Cc1cccc(S(=O)(=O)N[C@@H]2CCN(Cc3ccc(OC(F)F)cc3)C2)c1 [Compound 2] | > 8 | > 8 | > 8 | > 8 | > 8 | > 8 | > 8 | > 8 | 8 (≈ 19.6 µM) | > 8 | > 8 | > 8 | – | – | – | – | – | – | – | –
COc1ccccc1-c1ccc(CN2CC[C@@H](NS(=O)(=O)c3cccc(OC(F)(F)F)c3)C2)cc1 [Compound 76] | > 8 | > 8 | > 8 | > 8 | > 8 | > 8 | > 8 | > 8 | 8 (≈ 15.8 µM) | > 8 | > 8 | > 8 | – | – | – | – | – | – | – | –
O=S(=O)(N[C@@H]1CCN(Cc2ccc(-c3ccccc3)cc2)C1)c1cccc2cccnc12 [Compound 105] | > 8 | > 8 | > 8 | > 8 | > 8 | 8 (≈ 18 µM) | > 8 | > 8 | 0.125 (≈ 0.282 µM) | > 8 | > 8 | > 8 | – | – | – | – | – | – | – | –
N#Cc1cccc(S(=O)(=O)N[C@@H]2CCN(Cc3ccc(OC4CCCC4)cc3)C2)c1 [Compound 40] | > 8 | > 8 | > 8 | > 8 | > 8 | 4 (≈ 9.4 µM) | > 8 | > 8 | 0.5 (≈ 1.17 µM) | > 8 | > 8 | > 8 | – | – | – | – | – | – | – | –
O=S(=O)(N[C@@H]1CCN(Cc2ccc(OC3CCOCC3)cc2)C1)c1cccc(OC(F)(F)F)c1 [Compound 39] | > 8 | > 8 | > 8 | > 8 | > 8 | > 8 | > 8 | > 8 | 1 (≈ 2 µM) | > 8 | > 8 | > 8 | – | – | – | – | – | – | – | –
CC(C)Oc1ccc(CN2CC[C@@H](NS(=O)(=O)c3cc(S(C)(=O)=O)ccc3Cl)C2)cc1 [Compound 148] | – | – | – | – | > 8 | – | – | > 8 | – | – | > 8 | > 8 | > 8 | > 8 | > 8 | > 8 | > 8 | > 8 | 8 (≈ 16.4 µM) | > 8
O=S(=O)(N[C@@H]1CCN(Cc2ccc(OC3CCC3)cc2)C1)c1cccc(OC(F)(F)F)c1 [Compound 177] | – | – | – | – | > 8 | – | – | > 8 | – | – | > 8 | > 8 | > 8 | > 8 | > 8 | > 8 | > 8 | > 8 | 2 (≈ 4.25 µM) | > 8
